From patent publication US20250026769A1, “PAPD5 INHIBITORS AND METHODS OF USE THEREOF” (The Children's Medical Center Corporation, priority 2021, published 2025)

Target: T1, rPAPD5 (Homo sapiens, UniProt Q8NDF8)
T1 construct: made in house
Experiment: differential scanning fluorimetry (DSF) binding and stabilization of rPAPD5
Conditions: shift vs DMSO control; for ΔTm at 100 µM: 100 μM test compound, read-out: ΔTm at 100 μM
Procedure: Binding and stabilization of rPAPD5 by test compounds was determined using differential scanning fluorimetry (DSF). DSF assays were performed to determine protein melting temperature using an indicator dye SYPRO orange (Thermo Fisher Scientific, S6651) diluted 1:5000 in […] of buffer containing […], […] (Jena Biosciences), 25 mM Tris-HCl, 5 mM MgCl2, 50 mM KCl. […] DMSO was used as a negative control. Each curve was an average of three measurements and Thermal Shift software (Thermo Fisher Scientific, 4466038) was used for analysis. […] The change in melting temperature (ΔTm) is in reference to the DMSO control. Referring to Table 2, “+” refers to ΔTm values below 1° C., “++” refers to ΔTm values from 1 to 5° C., and “+++” refers to ΔTm values above 5° C.

T1 sequence (Q8NDF8 68-698 isoform Q8NDF8-5 limits assumed): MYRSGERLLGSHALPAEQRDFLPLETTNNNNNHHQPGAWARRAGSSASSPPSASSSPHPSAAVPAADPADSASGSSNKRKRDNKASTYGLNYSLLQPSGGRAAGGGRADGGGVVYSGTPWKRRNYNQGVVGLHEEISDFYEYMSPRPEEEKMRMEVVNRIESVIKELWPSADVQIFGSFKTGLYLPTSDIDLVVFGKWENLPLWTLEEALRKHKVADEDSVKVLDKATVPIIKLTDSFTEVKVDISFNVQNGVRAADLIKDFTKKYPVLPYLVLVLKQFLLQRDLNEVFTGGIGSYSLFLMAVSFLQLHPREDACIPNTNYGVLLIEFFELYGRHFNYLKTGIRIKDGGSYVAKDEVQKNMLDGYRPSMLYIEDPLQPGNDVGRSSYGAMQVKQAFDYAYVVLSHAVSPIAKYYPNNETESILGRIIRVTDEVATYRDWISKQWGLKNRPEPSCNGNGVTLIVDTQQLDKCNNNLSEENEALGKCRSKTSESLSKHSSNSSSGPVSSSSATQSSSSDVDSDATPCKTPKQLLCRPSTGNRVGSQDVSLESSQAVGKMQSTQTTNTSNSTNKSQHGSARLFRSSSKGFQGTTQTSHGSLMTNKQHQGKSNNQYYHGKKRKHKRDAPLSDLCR

ΔTm at 100 µM | ΔTm at 10 µM (10 μM test compound, read-out: ΔTm (Table 2, starred: the compound was tested at 10 μM)) | Compound
1 to 5 °C | – | O=C(O)c1ccccc1Nc1c(S(=O)(=O)N2CCOCC2)cnc2ccc(-c3ccc(N4CCOCC4)nc3)cc12 [Compound 163A, 2-[[6-(6-morpholino-3-pyridyl)-3-morpholinosulfonyl-4-quinolyl]amino]benzoic acid]
1 to 5 °C | – | N#Cc1ccc(-c2ccc3ncc(S(=O)(=O)N4CCOCC4)c(Nc4ccccc4C(=O)O)c3c2)cn1 [Compound 164A, 2-[[6-(6-cyano-3-pyridyl)-3-morpholinosulfonyl-4-quinolyl]amino]benzoic acid]
1 to 5 °C | – | CN1CCN(c2ccc(-c3ccc4ncc(S(=O)(=O)N5CCOCC5)c(Nc5ccccc5C(=O)O)c4c3)cn2)CC1 [Compound 165A, 2-[[6-[6-(4-methylpiperazin-1-yl)-3-pyridyl]-3-morpholinosulfonyl-4-quinolyl]amino]benzoic acid]
1 to 5 °C | – | COc1ncc(-c2ccc3ncc(S(=O)(=O)N4CCOCC4)c(Nc4ccccc4C(=O)O)c3c2)cc1N [Compound 166A, 2-[[6-(5-amino-6-methoxy-3-pyridyl)-3-morpholinosulfonyl-4-quinolyl]amino]benzoic acid]
< 1 °C | – | CNC(=O)c1ccc(-c2ccc3ncc(S(=O)(=O)N4CCOCC4)c(Nc4ccccc4C(=O)O)c3c2)cn1 [Compound 167A, 2-[[6-[6-(methylcarbamoyl)-3-pyridyl]-3-morpholinosulfonyl-4-quinolyl]amino]benzoic acid]
1 to 5 °C | – | O=C(O)c1ccccc1Nc1c(S(=O)(=O)N2CCOCC2)cnc2ccc(-c3cnccc3C(F)(F)F)cc12 [Compound 168A, 2-[[3-morpholinosulfonyl-6-[4-(trifluoromethyl)-3-pyridyl]-4-quinolyl]amino]benzoic acid]
< 1 °C | – | O=C(O)c1ccccc1Nc1c(S(=O)(=O)N2CCOCC2)cnc2ccc(-c3ccnc(N4CCNCC4)c3)cc12 [Compound 169A, 2-[[3-morpholinosulfonyl-6-(2-piperazin-1-yl-4-pyridyl)-4-quinolyl]amino]benzoic acid]
1 to 5 °C | – | O=C1Cc2ccc(-c3ccc4ncc(S(=O)(=O)N5CCOCC5)c(Nc5ccccc5C(=O)O)c4c3)cc2N1 [Compound 170A, 2-[[3-morpholinosulfonyl-6-(2-oxoindolin-6-yl)-4-quinolyl]amino]benzoic acid]
1 to 5 °C | – | CNc1ncc2cc(-c3ccc4ncc(S(=O)(=O)N5CCOCC5)c(Nc5ccccc5C(=O)O)c4c3)ccc2n1 [Compound 171A, 2-[[6-[2-(methylamino)quinazolin-6-yl]-3-morpholinosulfonyl-4-quinolyl]amino]benzoic acid]
1 to 5 °C | – | O=C(O)c1ccccc1Nc1c(S(=O)(=O)N2CCOCC2)cnc2ccc(-c3ccc(S(=O)(=O)N4CCOCC4)cc3)cc12 [Compound 172A, 2-[[3-morpholinosulfonyl-6-(4-morpholinosulfonylphenyl)-4-quinolyl]amino]benzoic acid]
1 to 5 °C | – | O=C(O)c1ccc(-c2ccc3ncc(S(=O)(=O)N4CCOCC4)c(Nc4ccccc4C(=O)O)c3c2)cc1 [Compound 173A, 2-[[6-(4-carboxyphenyl)-3-morpholinosulfonyl-4-quinolyl]amino]benzoic acid]
< 1 °C | – | CCN(CC)C(=O)c1ccc(-c2ccc3ncc(S(=O)(=O)N4CCOCC4)c(Nc4ccccc4C(=O)O)c3c2)cc1 [Compound 174A, 2-[[6-[4-(diethylcarbamoyl)phenyl]-3-morpholinosulfonyl-4-quinolyl]amino]benzoic acid]
> 5 °C | – | O=C(O)c1ccccc1Nc1c(S(=O)(=O)N2CCOCC2)cnc2ccc(-c3ccc4c(c3)OCO4)cc12 [Compound 175A, 2-[[6-(1,3-benzodioxol-5-yl)-3-morpholinosulfonyl-4-quinolyl]amino]benzoic acid]
– | < 1 °C | Cc1cc(OCc2ccccc2)ccc1-c1ccc2ncc(S(=O)(=O)N3CCOCC3)c(Nc3ccccc3C(=O)O)c2c1 [Compound 176A, 2-[[6-(4-benzyloxy-2-methyl-phenyl)-3-morpholinosulfonyl-4-quinolyl]amino]benzoic acid]
1 to 5 °C | – | Cn1ncc2ccc(-c3ccc4ncc(S(=O)(=O)N5CCOCC5)c(Nc5ccccc5C(=O)O)c4c3)cc21 [Compound 177A, 2-[[6-(1-methylindazol-6-yl)-3-morpholinosulfonyl-4-quinolyl]amino]benzoic acid]
1 to 5 °C | – | O=C(O)c1ccccc1Nc1c(S(=O)(=O)N2CCOCC2)cnc2ccc(-c3ccc(-n4cccn4)cc3)cc12 [Compound 178A, 2-[[3-morpholinosulfonyl-6-(4-pyrazol-1-ylphenyl)-4-quinolyl]amino]benzoic acid]
1 to 5 °C | – | CS(=O)(=O)Nc1ccc(-c2ccc3ncc(S(=O)(=O)N4CCOCC4)c(Nc4ccccc4C(=O)O)c3c2)cc1 [Compound 179A, 2-[[6-[4-(methanesulfonamido)phenyl]-3-morpholinosulfonyl-4-quinolyl]amino]benzoic acid]

ΔTm at 100 µM | ΔTm at 10 µM (10 μM test compound, read-out: ΔTm (Table 2, starred: the compound was tested at 10 μM)) | Compound
< 1 °C | – | CN1CCN(c2ccc(-c3ccc4ncc(S(=O)(=O)N5CCOCC5)c(Nc5ccccc5C(=O)O)c4c3)cc2)CC1 [Compound 180A, 2-[[6-[4-(4-methylpiperazin-1-yl)phenyl]-3-morpholinosulfonyl-4-quinolyl]amino]benzoic acid]
1 to 5 °C | – | O=C(O)c1ccccc1Nc1c(S(=O)(=O)N2CCOCC2)cnc2ccc(-c3ccc4[nH]cnc4c3)cc12 [Compound 182A, 2-[[6-(1H-benzimidazol-5-yl)-3-morpholinosulfonyl-4-quinolyl]amino]benzoic acid]
> 5 °C | – | O=C(O)c1ccccc1Nc1c(NC2CCOCC2)cnc2ccc(Cl)cc12 [Compound 184A, 2-[[6-chloro-3-(tetrahydropyran-4-ylamino)-4-quinolyl]amino]benzoic acid]
1 to 5 °C | – | O=C(O)c1ccccc1Nc1c(NC2CCNCC2)cnc2ccc(Cl)cc12 [Compound 186A, 2-[[6-chloro-3-(4-piperidylamino)-4-quinolyl]amino]benzoic acid]
> 5 °C | – | O=C(O)c1ccccc1Nc1c(NC2CCS(=O)(=O)CC2)cnc2ccc(Cl)cc12 [Compound 188A, 2-[[6-chloro-3-[(1,1-dioxothian-4-yl)amino]-4-quinolyl]amino]benzoic acid]
> 5 °C | – | O=C(O)c1ccccc1Nc1c(Nc2cncnc2)cnc2ccc(Cl)cc12 [Compound 191A, 2-[[6-chloro-3-(pyrimidin-5-ylamino)-4-quinolyl]amino]benzoic acid]
> 5 °C | – | O=C(O)c1ccccc1Nc1c(C2CCOCC2)cnc2c1CCCC2 [Compound 204A-BP, 2-[(3-tetrahydropyran-4-yl-5,6,7,8-tetrahydroquinolin-4-yl)amino]benzoic acid]
> 5 °C | – | O=C(O)c1ccccc1Nc1c(C2CCC(F)(F)CC2)cnc2ccc(Cl)cc12 [Compound 205A, 2-[[6-chloro-3-(4,4-difluorocyclohexyl)-4-quinolyl]amino]benzoic acid]
> 5 °C | – | O=C(O)c1ccccc1Nc1c(C2CCNCC2)cnc2ccc(Cl)cc12 [Compound 206A, 2-[[6-chloro-3-(4-piperidyl)-4-quinolyl]amino]benzoic acid]
> 5 °C | – | CN1CCC(c2cnc3ccc(Cl)cc3c2Nc2ccccc2C(=O)O)CC1 [Compound 207A, 2-[[6-chloro-3-(1-methyl-4-piperidyl)-4-quinolyl]amino]benzoic acid]
> 5 °C | – | O=C(O)c1ccccc1Nc1c(C2CCS(=O)(=O)CC2)cnc2ccc(Cl)cc12 [Compound 208A, 2-[[6-chloro-3-(1,1-dioxothian-4-yl)-4-quinolyl]amino]benzoic acid]
1 to 5 °C | – | O=C(O)c1ccccc1Nc1c(C2=CCS(=O)(=O)CC2)cnc2ccc(Cl)cc12 [Compound 208A-INT, 2-[[6-chloro-3-(1,1-dioxo-3,6-dihydro-2H-thiopyran-4-yl)-4-quinolyl]amino]benzoic acid]
> 5 °C | – | O=C(O)c1ccccc1Nc1c(-c2ccncc2)cnc2ccc(Cl)cc12 [Compound 209A, 2-[[6-chloro-3-(4-pyridyl)-4-quinolyl]amino]benzoic acid]
> 5 °C | – | O=C(O)c1ccccc1Nc1c(-c2nccs2)cnc2ccc(Cl)cc12 [Compound 211A, 2-[(6-chloro-3-thiazol-2-yl-4-quinolyl)amino]benzoic acid]
1 to 5 °C | – | O=C(O)c1ccccc1Nc1c(-c2cnoc2)cnc2ccc(Cl)cc12 [Compound 212A, 2-[(6-chloro-3-isoxazol-4-yl-4-quinolyl)amino]benzoic acid]
> 5 °C | – | O=C(O)c1ccccc1Nc1c(S(=O)(=O)NC2CCOCC2)cnc2ccc(Cl)cc12 [Compound 216A, 2-[[6-chloro-3-(tetrahydropyran-4-ylsulfamoyl)-4-quinolyl]amino]benzoic acid]
> 5 °C | – | O=C(O)c1ccccc1Nc1c(S(=O)(=O)NC2CCC(F)(F)CC2)cnc2ccc(Cl)cc12 [Compound 217A, 2-[[6-chloro-3-[(4,4-difluorocyclohexyl)sulfamoyl]-4-quinolyl]amino]benzoic acid]

Compound | ΔTm at 100 µM | ΔTm at 10 µM (10 μM test compound, read-out: ΔTm (Table 2, starred: the compound was tested at 10 μM))
O=C(O)c1ccccc1Nc1c(C2=CCNCC2)cnc2ccc(Cl)cc12 [Compound 206A-INT, 2-[[6-chloro-3-(1,2,3,6-tetrahydropyridin-4-yl)-4-quinolyl]amino]benzoic acid] | > 5 °C | –
CN1CC=C(c2cnc3ccc(Cl)cc3c2Nc2ccccc2C(=O)O)CC1 [Compound 207A-INT, 2-[[6-chloro-3-(1-methyl-3,6-dihydro-2H-pyridin-4-yl)-4-quinolyl]amino]benzoic acid] | > 5 °C | –
